Data as given in US7550456B2, “Substituted aryl cycloalkanoyl derivatives and methods of their use” (Wyeth, priority 2003, dated 2009).
Counter-ions that a name gives are not always drawn. Like-named read-outs stand apart in the source and are kept apart here.

Target: T1, human hNET (Homo sapiens, UniProt P23975)
T1 construct: expressed in transfected cells; host or cells: MDCK-Net6 (MDCK cells, stably transfected)
Assay: Norepinephrine (NE) uptake assay in MDCK-Net6 cells
Assay type: cell-based
Conditions: for EC50: test range 1 to 10,000 nM
Experimental: Cells were plated at 300,000/T75 flask and cells were split twice weekly. […] Cells were plated at 250,000 cells/T75 flask and split twice weekly.
Norepinephrine (NE) Uptake Assay
On day 1, cells were plated at 3,000 cells/well in growth medium and maintained in a cell incubator (37° C., 5% CO2). On day 2, growth medium was replaced with 200 μl of assay buffer (25 mM HEPES; 120 mM NaCl; 5 mM KCl; 2.5 mM CaCl2; 1.2 mM MgSO4; 2 mg/ml glucose (pH 7.4, 37° C.)) containing 0.2 mg/ml ascorbic acid and 10 μM pargyline. Plates containing cells with 200 μl of assay buffer were equilibrated for 10 minutes at 37° C. prior to addition of compounds. A stock solution of desipramine was prepared in DMSO (10 mM) and delivered to triplicate wells containing cells for a final test concentration of 1 μM. Data from these wells were used to define non-specific NE uptake (minimum NE uptake). Test compounds were prepared in DMSO (10 mM) and diluted in assay buffer according to test range (1 to 10,000 nM). Twenty-five microliters of assay buffer (maximum NE uptake) or test compound were added directly to triplicate wells containing cells in 200 μl of assay buffer. The cells in assay buffer with test compounds were incubated for 20 minutes at 37° C. […] The reaction was terminated by decanting the supernatant from the plate. The plates containing cells were washed twice with 200 μl assay buffer (37° C.) to remove free radioligand. The plates were then inverted, left to dry for 2 minutes, then reinverted and air-dried for an additional 10 minutes. The cells were lysed in 25 μl of 0.25 N NaOH solution (4° C.), placed on a shake table and vigorously shaken for 5 minutes. After cell lysis, 75 μl of scintillation cocktail was added to each well and the plates were sealed with film tape. The plates were returned to the shake table and vigorously shaken for a minimum of 10 minutes to ensure adequate partitioning of organic and aqueous solutions. The plates were counted in a Wallac Microbeta counter (PerkinElmer) to collect the raw cpm data.
For each experiment, a data stream of cpm values collected from the Wallac Microbeta counter was downloaded to a Microsoft Excel statistical application program. Calculations of EC50 values were made using the transformed-both-sides logistic dose response program written by Wyeth Biometrics Department.

[1] = 1 μM test compound, [3H]NE uptake, read-out: % Inhibition @ 1 μM (hNET)
[2] = MDCK-Net6, read-out: % Inhibition @ 1 μM (hNET), 1 μM test compound, [3H]NE uptake

T1 sequence (P23975 whole entry): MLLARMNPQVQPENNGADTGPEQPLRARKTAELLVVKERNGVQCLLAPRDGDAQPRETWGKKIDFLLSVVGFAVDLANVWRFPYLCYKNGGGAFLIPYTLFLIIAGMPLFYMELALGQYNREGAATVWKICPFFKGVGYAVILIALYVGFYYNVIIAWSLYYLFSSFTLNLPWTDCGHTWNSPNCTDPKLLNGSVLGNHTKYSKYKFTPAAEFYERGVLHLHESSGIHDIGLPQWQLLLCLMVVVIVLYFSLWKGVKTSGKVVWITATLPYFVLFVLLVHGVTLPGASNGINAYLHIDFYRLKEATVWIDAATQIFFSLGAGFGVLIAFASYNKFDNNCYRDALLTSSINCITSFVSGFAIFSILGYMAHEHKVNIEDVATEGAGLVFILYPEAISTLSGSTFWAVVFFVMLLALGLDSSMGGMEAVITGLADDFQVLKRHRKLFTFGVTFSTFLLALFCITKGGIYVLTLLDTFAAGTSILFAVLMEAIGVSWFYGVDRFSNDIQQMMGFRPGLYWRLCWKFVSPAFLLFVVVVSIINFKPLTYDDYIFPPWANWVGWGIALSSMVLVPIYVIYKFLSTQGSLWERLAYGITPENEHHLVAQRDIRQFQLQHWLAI

| inhibition at 1 µM [1] [%] | Compound | other results |
| --- | --- | --- |
|  | 1-[1-[4-methoxy-3-(trifluoromethoxy)phenyl]-2-(4-methylpiperazin-1-yl)ethyl]cyclohexanoldihydrochloride [Example 403] | % Inhibition @ 1 μM (hNET) (1 μM test compound, [3H]NE uptake): 48% |
| 87 | OC1([C@H](CN2CCNCC2)c2cccc(Oc3ccccc3)c2)CCCCC1 (single isomer, unassigned) [Example 357, dihydrochloride] |  |
| 73 | OC1([C@@H](CN2CCNCC2)c2cccc(Oc3ccccc3)c2)CCCCC1 (single isomer, unassigned) [Example 358, dihydrochloride] |  |
| 37 | CC(C)(O)CN1CCN(CC(c2cccc(OC(F)(F)F)c2)C2(O)CCCCC2)CC1 (single isomer, unassigned) [Example 372, 1-{2-[4-(2-hydroxy-2-methylpropyl)piperazin-1-yl]-1-[3-(trifluoromethoxy)phenyl]ethyl}cyclohexanol dihydrochloride] |  |
|  | OC1(C(CN2CCNCC2)c2cccc(OC(F)(F)F)c2)CCCCC1 (stereo in doubt) [Example 244, 1-{(1R)-2-piperazin-1-yl-1-[3-(trifluoromethoxy)phenyl]ethyl}cyclohexanol dihydrochloride] | % Inhibition @ 1 μM (hNET) (1 μM test compound, [3H]NE uptake, dihydrochloride, 1 µM): 15.6% |
|  | OC1(C(CN2CCNCC2)c2cccc(OC(F)(F)F)c2)CCCCC1 (stereo not shown) [Example 23, 1-{2-piperazin-1-yl-1-[3-(trifluoromethoxy)phenyl]ethyl}cyclohexanol dihydrochloride] | inhibition at 1 µM [2]: 85%; EC50 ([3H]NE uptake): 350 nM |
|  | CN1CCN(CC(c2cccc(OC(F)(F)F)c2)C2(O)CCCCC2)CC1 (stereo not shown) [Example 24, 1-{2-(4-methylpiperazin-1-yl)-1-[3-(trifluoromethoxy)phenyl]ethyl}cyclohexanol dihydrochloride] | inhibition at 1 µM [2]: 85% |
| 82 | OC1(C(CN2CCNCC2)c2ccc(OCc3ccccc3)cc2)CCCCC1 (stereo not shown) [Example 27, 1-{1-[4-(benzyloxy)phenyl]-2-piperazin-1-ylethyl}cyclohexanol dihydrochloride] | EC50 ([3H]NE uptake): 470 nM |
| 80 | OC1(C(CN2CCNCC2)c2ccc(OC(F)(F)F)cc2)CCCCC1 (stereo not shown) [Example 28, 1-{2-piperazin-1-yl-1-[4-(trifluoromethoxy)phenyl]ethyl}cyclohexanol dihydrochloride] |  |
| 44 | OC1(C(CN2CCNCC2)c2cccc(OC(F)(F)F)c2)CCC1 (stereo not shown) [Example 46, 1-{2-piperazin-1-yl-1-[3-(trifluoromethoxy)phenyl]ethyl}cyclobutanol dihydrochloride] |  |
| 8 | OC1(C(CN2CCNCC2)c2ccc(OCc3ccccc3)cc2)CCC1 (stereo not shown) [Example 70, 1-{1-[4-(benzyloxy)phenyl]-2-piperazin-1-ylethyl}cyclobutanol dihydrochloride] |  |
| 25 | CN1CCN(CC(c2ccc(OCc3ccccc3)cc2)C2(O)CCC2)CC1 (stereo not shown) [Example 71, 1-[1-[4-(benzyloxy)phenyl]-2-(4-methylpiperazin-1-yl)ethyl]cyclobutanol dihydrochloride] |  |
| 13 | CN1CCN(CC(c2cccc(OC(F)(F)F)c2)C2(O)CCC2)CC1 (stereo not shown) [Example 92, 1-{2-(4-methylpiperazin-1-yl)-1-[3-(trifluoromethoxy)phenyl]ethyl}cyclobutanol dihydrochloride] |  |
| 3 | OC1(C(CN2CCNCC2)c2cccc(OCc3ccccc3)c2)CCCCC1 (stereo not shown) [Example 104, 1-{1-[3-(benzyloxy)phenyl]-2-piperazin-1-ylethyl}cyclohexanol dihydrochloride] |  |
| 0 | CN1CCN(CC(c2cccc(OCc3ccccc3)c2)C2(O)CCCCC2)CC1 (stereo not shown) [Example 108, 1-[1-[3-(benzyloxy)phenyl]-2-(4-methylpiperazin-1-yl)ethyl]cyclohexanol dihydrochloride] |  |
| -3 | OC1(C(CN2CCNCC2)c2cccc(OCc3ccccc3)c2)CCC1 (stereo not shown) [Example 111, 1-{1-[3-(benzyloxy)phenyl]-2-piperazin-1-ylethyl}cyclobutanol dihydrochloride] |  |
| -10 | CN1CCN(CC(c2cccc(OCc3ccccc3)c2)C2(O)CCC2)CC1 (stereo not shown) [Example 115, 1-[1-[3-(benzyloxy)phenyl]-2-(4-methylpiperazin-1-yl)ethyl]cyclobutanol dihydrochloride] |  |
| 65 | OC1(C(CN2CCNCC2)c2cccc(-c3ccc(Cl)c(Cl)c3)c2)CCCCC1 (stereo not shown) [Example 135, 1-[1-(3′,4′-dichloro-1,1′-biphenyl-3-yl)-2-piperazin-1-ylethyl]cyclohexanol dihydrochloride] | EC50 ([3H]NE uptake): 635 nM |
| 62 | OC1(C(CN2CCNCC2)c2cccc(-c3ccccc3)c2)CCCCC1 (stereo not shown) [Example 136, 1-[1-(1,1′-biphenyl-3-yl)-2-piperazin-1-ylethyl]cyclohexanol dihydrochloride] | EC50 ([3H]NE uptake): 1000 nM |
| 41 | OC1(C(CN2CCNCC2)c2cccc(-c3ccc(Cl)cc3)c2)CCCCC1 (stereo not shown) [Example 137, 1-[1-(4′-chloro-1,1′-biphenyl-3-yl)-2-piperazin-1-ylethyl]cyclohexanol dihydrochloride] |  |
| 44 | COc1cccc(-c2cccc(C(CN3CCNCC3)C3(O)CCCCC3)c2)c1 (stereo not shown) [Example 138, 1-[1-(3′-methoxy-1,1′-biphenyl-3-yl)-2-piperazin-1-ylethyl]cyclohexanol dihydrochloride] |  |
| 45 | OC1(C(CN2CCNCC2)c2cccc(-c3cccc(Cl)c3)c2)CCCCC1 (stereo not shown) [Example 139, 1-[1-(3′-chloro-1,1′-biphenyl-3-yl)-2-piperazin-1-ylethyl]cyclohexanol dihydrochloride] |  |
|  | OC1(C(CN2CCNCC2)c2cccc(-c3ccccc3F)c2)CCCCC1 (stereo not shown) [Example 140, 1-[1-(2′-fluoro-1,1′-biphenyl-3-yl)-2-piperazin-1-ylethyl]cyclohexanol maleate] | inhibition at 1 µM [2]: 52%; EC50 ([3H]NE uptake): 870 nM |
| 13 | OC1(C(CN2CCNCC2)c2cccc(-c3ccc(F)c(F)c3)c2)CCCCC1 (stereo not shown) [Example 147, 1-[1-(3′,4′-difluoro-1,1′-biphenyl-3-yl)-2-piperazin-1-ylethyl]cyclohexanol dihydrochloride] |  |
| 32 | OC1(C(CN2CCNCC2)c2ccccc2-c2ccc(Cl)c(Cl)c2)CCCCC1 (stereo not shown) [Example 148, 1-[1-(3′,4′-dichloro-1,1′-biphenyl-2-yl)-2-piperazin-1-ylethyl]cyclohexanol dihydrochloride] |  |
| 31 | OC1(C(CN2CCNCC2)c2ccccc2-c2ccccc2)CCCCC1 (stereo not shown) [Example 149, 1-[1-(1,1′-biphenyl-2-yl)-2-piperazin-1-ylethyl]cyclohexanol dihydrochloride] |  |
| 18 | OC1(C(CN2CCNCC2)c2ccccc2-c2cccc(Cl)c2)CCCCC1 (stereo not shown) [Example 150, 1-[1-(3′-chloro-1,1′-biphenyl-2-yl)-2-piperazin-1-ylethyl]cyclohexanol dihydrochloride] |  |
| 12 | OC1(C(CN2CCNCC2)c2ccccc2-c2ccc3c(c2)OCO3)CCCCC1 (stereo not shown) [Example 151, 1-{1-[2-(1,3-benzodioxol-5-yl)phenyl]-2-piperazin-1-ylethyl}cyclohexanol dihydrochloride] |  |
| 1 | NC1CCN(CC(c2cccc(-c3ccc(Cl)c(Cl)c3)c2)C2(O)CCCCC2)CC1 (stereo not shown) [Example 152, 1-[2-(4-aminopiperidin-1-yl)-1-(3′,4′-dichloro-1,1′-biphenyl-3-yl)ethyl]cyclohexanol dihydrochloride] |  |
